According to PMC8769072, “Proteome‐scale mapping of binding sites in the unstructured regions of the human proteome” (Molecular Systems Biology, 2022):
Where a SMILES comes first, the peptide text is derived from it. Where no end group is shown, it is not given here. [ ]: non-standard residue; d: D form. The star is where a group is joined. FITC = O=C1OC2(c3ccc(O)cc3Oc3cc(O)ccc32)c2ccc(NC(=S)*)cc21; pY = N[C@@H](Cc1ccc(OP(=O)(O)O)cc1)C(=O)O

Experiments:
KEAP1 Kelch = target: T1, KEAP1 Kelch (Homo sapiens, UniProt Q14145); assay: FP competition, KEAP1 Kelch; assay type: binding
T1 construct: Q14145; KEAP1; Kelch; 321; 609; pETM33; Genescript; made in house; host or cells: bacteria (E. coli BL21(DE3) gold is named only for the phage-selection preparations)

CLTC = target: T2, CLTC (Homo sapiens, UniProt Q00610); assay: FP competition, CLTC; assay type: binding; conditions: competitive FP assay
T2 construct: Q00610; CLTC; Clathrin propeller; 364; pETM33; Genescript; 6-His-GST; made in house; host or cells: Escherichia coli BL21(DE3) gold (stated for the bait preparation)
T2 sequence (Q00610 1-364): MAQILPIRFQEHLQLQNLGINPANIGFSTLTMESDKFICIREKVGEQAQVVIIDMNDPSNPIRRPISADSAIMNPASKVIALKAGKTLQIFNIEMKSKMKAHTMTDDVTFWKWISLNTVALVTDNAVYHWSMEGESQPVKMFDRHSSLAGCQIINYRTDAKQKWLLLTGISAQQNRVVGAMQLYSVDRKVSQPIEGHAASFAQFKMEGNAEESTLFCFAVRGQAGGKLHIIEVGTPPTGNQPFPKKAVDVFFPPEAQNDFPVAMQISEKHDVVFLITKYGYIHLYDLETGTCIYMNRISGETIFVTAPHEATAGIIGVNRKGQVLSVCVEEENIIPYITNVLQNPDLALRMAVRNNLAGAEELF

MDM2 SWIB = target: T3, MDM2 SWIB (Homo sapiens, UniProt Q00987); assay: FP competition, MDM2 SWIB; assay type: binding
T3 construct: Q00987; MDM2; SWIB; 17; 125; pETM33; Genescript; His-GST (cleaved yes); made in house; host or cells: bacteria (E. coli BL21(DE3) gold is named only for the phage-selection preparations)

KPNA4 ARM [1] = target: T4, KPNA4 ARM (Homo sapiens, UniProt O00629); assay: FP competition, KPNA4 ARM major pocket (FITC-Myc probe); assay type: binding; conditions: for IC50: FP competition with FITC-Myc320-328 probe for the major pocket, 50 mM KPO4 pH 7.5, n = 3 technical replicates; for Kd: Fig 5D, FP competition with FITC-Myc320-328, major groove, n = 3
T4 construct: O00629; KPNA4; Arm; 68; 487; pETM33/pETM41; Genescript; made in house; host or cells: bacteria (E. coli BL21(DE3) gold is named only for the phage-selection preparations)
Source text: (§1) Like other importins, KPNA4 has two distinct NLS‐binding pockets on the surface of an armadillo (ARM) repeat fold (major pocket, ARM 2–4; minor pocket, ARM 6–8; Fig 5B) (Smith et al, [2018]). Bipartite NLSs are usually 17–19 amino acids long and engage both pockets. Monopartite NLSs are short basic stretches, divided into five classes (Kosugi et al, [2009]): class I KR[KR]R or K[KR]RK, class II [PR]xxKR[^DE][KR] (where ^ indicates “not”), class III KRx[WFY]xxAF, class IV [RP]xxKR[KR][^DE], and class V LGKR[KR][WFY]. The class I and class II motifs preferentially interact with the major pocket (Kosugi et al, [2009]). In contrast, class III and class IV NLSs preferentially bind to the minor pocket. Using KPNA4 as a bait against the HD2 P8 library we identified 33 peptides found in 32 proteins. Of the 26 proteins for which information was available, 22 proteins were annotated as having nuclear or nucleolar localization in the UniProt database. To gain additional information we combined the data generated for KPNA4 by screening against the complete P8 HD2 library, with the results generated using two relevant sublibraries (the cytoplasmic and nuclear, and nuclear sublibraries) resulting in a set of 92 peptides containing NLS‐like sequences found in 76 proteins. Using these peptides we could generate consensus motifs that matched four of the previously reported NLS classes (Fig 5A; class I‐IV). […] Three peptides bound only to the major pocket. Eight peptides with class III motif and one KRxH‐containing peptide only bound to the minor pocket. Five peptides outcompeted both probe peptides, which may be explained by the amino acid sequence matching both class II and class III motifs (e.g., 1135‐ PSPKRKL ‐1139 in ZNF532; Fig 5), and possibly by cross specificity of the two binding pockets.

KPNA4 ARM [2] = target: T4, KPNA4 ARM; assay: FP competition, KPNA4 ARM minor pocket (FITC-NCOR2 probe); assay type: binding
Source text: as §1

KPNA4 ARM [3] = target: T4, KPNA4 ARM; assay: FP saturation (direct binding of FITC probes), KPNA4 ARM
TLN1 PTB = target: T5, TLN1 PTB (Homo sapiens, UniProt Q9Y490); assay: FP competition, TLN1 PTB; assay type: binding
T5 construct: Q9Y490; TLN1; PTB; 309; pHH0103; Sidhu Lab (PMID: 33438817); made in house; host or cells: bacteria (E. coli BL21(DE3) gold is named only for the phage-selection preparations)

KPNB1 HEAT = target: T6, KPNB1 HEAT (Homo sapiens, UniProt Q14974); assay: FP competition, KPNB1 HEAT; assay type: binding; conditions: for Ki: FP competition with FITC-NUP153 probe, low-affinity value
T6 construct: Q14974; KPNB1; HEAT; 485; pETM41; Genescript; 6-His-MBP (from vector pETM41) (cleaved yes); made in house; host or cells: bacteria (E. coli BL21(DE3) gold is named only for the phage-selection preparations)

[4] = system: immobilized GST-tagged bait protein domains; assay: ProP-PD phage selections (HD2 P8, sublibraries, HD2 P3, HD1 P8) with NGS and confidence level; assay type: binding, human; conditions: bait CRK_SH3_1_P46108_124_198; library HD2; benchmarking set of validated motif instances; TRUE = motif instance recovered in the ProP-PD selection

With Ac-YDEKTGEFLPIQPAQH-NH2 [NFE2L2 E79K] the IC50 (KEAP1 Kelch) was 1650 µM.

With Ac-YVSGNLIDLYGNQGLP [MITF] the IC50 (CLTC) was 150 µM.

GFEAQWAALENKSKQR [NUMB] gave an IC50 (MDM2 SWIB) of 130 µM.

Compound IPEKKQRLEEATTICL-NH2 [AFF2] has an IC50 (KPNA4 ARM [1]) of 2.3 µM and an IC50 (KPNA4 ARM [2]) of 3800 µM.

In the case of Ac-YDEETGEFLPIQPAQH-NH2 [NFE2L2 Wt], the IC50 (KEAP1 Kelch) is reported as 0.31 µM.

For CC[C@H](C)[C@H](NC(=O)[C@H](C)NC(=O)[C@H](CCCNC(=N)N)NC(=O)CNC(=O)[C@@H](NC(=O)[C@H](CCCNC(=N)N)NC(=O)CNC(=O)[C@H](CCC(=O)O)NC(=O)[C@H](CCSC)NC(=O)[C@H](CCSC)NC(=O)[C@H](CC(=O)O)NC(=O)[C@H](Cc1ccc(O)cc1)NC(=O)[C@@H](NC(=O)[C@H](CCCNC(=N)N)NC(=O)[C@H](CCCCN)NC(=O)[C@@H]1CCCN1C(=S)Nc1ccc2c(c1)C(=O)OC21c2ccc(O)cc2Oc2cc(O)ccc21)[C@@H](C)O)C(C)C)C(=O)O [NCOR2 FITC] ({FITC}-PKRTYDMMEGRVGRAI-OH), the Kd (KPNA4 ARM [3]; Appendix Fig S7, saturation curves of FITC-labeled probes with KPNA4 ARM) was 0.228 ± 0.011 µM.

For DLKRRLDSITSSQSSA-NH2 [KDR], the IC50 (KPNA4 ARM [1]) was 22 µM, the Kd (KPNA4 ARM [1]) was 14 µM and the IC50 (KPNA4 ARM [2]) was 24 µM.

Compound Ac-PPLPPPPLPPAPSLPY-NH2 [ATF5] has an IC50 (KEAP1 Kelch) of 4430 µM.

EDSIEPPHKRLCLSSE-NH2 [DMTF1] was tested, and the IC50 (KPNA4 ARM [1]) was 0.13 µM and the Kd (KPNA4 ARM [1]) was 0.075 µM.

In the case of THFAELWGHLDHTMFF [RNF115], the IC50 (MDM2 SWIB) is reported as 9 µM and the Ki (MDM2 SWIB; Fig 3C, FP competition with FITC-p53 probe, triplicates) is reported as 0.174 µM.

For CC(C)C[C@H](NC(=O)[C@H](CCCNC(=N)N)NC(=O)[C@@H]1CCCN1C(=O)[C@H](CCCNC(=N)N)NC(=O)[C@H](CCCCN)NC(=O)[C@H](CC(N)=O)NC(=O)[C@@H]1CCCN1C(=O)[C@H](Cc1ccccc1)NC(=O)[C@@H](NC(=O)[C@H](CC(=O)O)NC(=O)[C@H](CCC(=O)O)NC(=O)[C@@H](N)CO)[C@@H](C)O)C(=O)N[C@@H](CCC(=O)O)C(=O)N[C@@H](CC(=O)O)C(=O)N[C@@H](CCCCN)C(=O)N[C@H](C(=O)N[C@H](C(N)=O)C(C)C)[C@@H](C)O [SPRTN], the IC50 (KPNA4 ARM [1]) was 0.26 µM.

For “{FITC}-PAAKRVKLD [Myc, FITC-labeled Myc 320-328 probe for the KPNA4 major pocket]”, the Kd (KPNA4 ARM [3]; direct binding of FITC-labeled probe, saturation with KPNA4 ARM) was 0.03 µM.

FPTDERSWVYSPLHYS-NH2 [PIP5K1C] was tested, and the IC50 (TLN1 PTB) was 0.42 µM and the Ki (TLN1 PTB; Fig 3C, FP competition with FITC-PIP5K1C probe, triplicates) was 0.066 µM.

For Ac-GIIDPSTGECFPVTDY-NH2, the IC50 (KEAP1 Kelch) was 2.3 µM and the “binding to KEAP1 Kelch, result in words” value (KEAP1 Kelch; FP competition with FITC-NFE2L1 probe) was “no effect on binding”.

CC(=O)NCC(=O)N[C@@H](Cc1ccc(O)cc1)C(=O)N[C@H](C(=O)N[C@@H](Cc1ccccc1)C(=O)N[C@@H](CCC(N)=O)C(=O)N[C@H](C(=O)N[C@@H](CCC(N)=O)C(=O)N[C@@H](CC(=O)O)C(=O)NCC(=O)N[C@@H](C)C(=O)N1CCC[C@H]1C(=O)NCC(=O)N[C@H](C(=O)N[C@@H](Cc1ccccc1)C(=O)N[C@@H](CC(N)=O)C(=O)N[C@@H](Cc1ccccc1)C(=O)O)[C@@H](C)O)C(C)C)[C@@H](C)O [KPNA2_514–529] showed a Ki (KPNB1 HEAT) of 1000 µM.

For CC[C@H](C)[C@H](NC(=O)[C@H](CC(N)=O)NC(=O)CNC(=O)[C@H](CCC(=O)O)NC(=O)[C@@H](NC(=O)[C@H](CO)NC(=O)[C@H](CCC(=O)O)NC(=O)[C@H](Cc1ccc(OP(=O)(O)O)cc1)NC(=O)[C@H](CO)NC(=O)[C@H](CCCNC(=N)N)NC(=O)[C@H](CCCCN)NC(=O)[C@H](CC(C)C)NC(=O)[C@H](CO)NC(=O)[C@@H](NC(=O)[C@H](CCC(=O)O)NC(C)=O)[C@@H](C)CC)C(C)C)C(=O)N[C@@H](CCCCN)C(N)=O [NCOR1 pY1247] (Ac-EISLKRS[pY]ESVEGNIK-NH2), the IC50 (KPNA4 ARM [2]) was 21 µM and the “effect of phosphorylation on the affinity for KPNA4, in words” value (KPNA4 ARM [2]; FP competition with FITC-NCOR2 probe, phosphorylated versus unphosphorylated NCOR1 peptide) was “minor effects”.

Ac-AYAPPVFVFQKDKGQK-NH2 [RANBP3] gave an IC50 (KPNB1 HEAT) of 2200 µM and a Ki (KPNB1 HEAT) of roughly 1000 µM.

With GFDAVTGEFTGMPEQW-NH2 [PAK1] the IC50 (KEAP1 Kelch) was 44 µM and the motif_found [4] was “FALSE”.
